In brackets after ≈: the same amount, converted by molar mass.
Test system: Black Bean Aphid [Aphis fabae (Scop.)]
Test: Black Bean Aphid (BBA) plant spray assay, mortality after three days
Type: in vivo
Conditions: spray on infested nasturtium plants
Text: (§1) Screening was initiated at a maximal concentration level believed to be injurious to the insect population. The initial level should not be understood as representing a maximum at which a viable test for insecticidal activity can be conducted. […]
(§2) Nasturtium plants, Tropaeolum sp., approximately five centimeters (cm) high were transplanted into sandy loam soil in three-inch clay pots. Each pot was infested with 25-50 black bean aphids of mixed ages. Twenty-four hours later the pots were sprayed to the point of run-off with 50--50 acetone-water solutions of the test compounds.
(§3) Mortality rates were recorded after the infested plants had been held in the greenhouse for three days. Test concentrations ranged from 0.05% down to that at which 50% mortality occurs. Green Peach Aphid [Myzus persicae (Sulzer)], (GPA)
(§4) A less than 50% mortality rate at the initial concentration is indicated by a "greater than" sign (>). An approximately 50% mortality rate is indicated by the initial concentration rate. Other results are the dilutions at which an LD50 was achieved.

SMILES	LD50 BBA
CCOP(=S)(OCC)SCC(=O)N1CCN(C(=O)OC)CC1 [Compound 3, 1-N-methoxycarbo-4-N-O,O-diethylphosphorodithioylacetyl piperazine]	.001%
CCOC(=O)N1CCN(C(=O)CSP(=S)(OC)OC)CC1 [Compound 10, 1-N-ethoxycarbo-4-N-O,O-dimethylphosphorodithioylacetyl piperazine]	.0002%
CCOC(=O)N1CCN(C(=O)CSP(=S)(OC)OC)C(C)C1 (stereo not shown) [Compound 11, 1-N-ethoxycarbo-4-N'-O,O-dimethylphosphorodithioylacetyl-3-methyl piperazine]	.002%

Test system: Green Peach Aphid [Myzus persicae (Sulzer)]
Test: Green Peach Aphid (GPA) plant spray assay
Type: in vivo
Conditions: spray on infested radish plants, three days
Text: (§5) Screening was initiated at a maximal concentration level believed to be injurious to the insect population. The initial level should not be understood as representing a maximum at which a viable test for insecticidal activity can be conducted.
as §2, §3
(§6) The insecticidal properties were tested in the same manner as for black beam aphids with the substitution of the nasturtiums by radish plants, Rhaphanus sativus. German Cockroach [Blatella germanica (Linne)], (GR)--Direct Spray
as §4

SMILES	LD50 GPA
CCOP(=S)(OCC)SCC(=O)N1CCN(C(=O)OC)CC1 [Compound 3, 1-N-methoxycarbo-4-N-O,O-diethylphosphorodithioylacetyl piperazine]	.01%
CCOC(=O)N1CCN(C(=O)CSP(=S)(OC)OC)CC1 [Compound 10, 1-N-ethoxycarbo-4-N-O,O-dimethylphosphorodithioylacetyl piperazine]	.002%
CCOC(=O)N1CCN(C(=O)CSP(=S)(OC)OC)C(C)C1 (stereo not shown) [Compound 11, 1-N-ethoxycarbo-4-N'-O,O-dimethylphosphorodithioylacetyl-3-methyl piperazine]	.03%

Test system: German Cockroach [Blatella germanica (Linne)]
Test: German Cockroach (GR) direct spray, mortality 7 days later
Type: in vivo
Conditions: one-month-old nymphs, initial 0.1%
Method: as §5
(§7) Mobile insects, such as houseflies, German cockroaches, Lygus bugs, were contained for treatment in circular cardboard cages covered with cellophane on the bottom and tulle netting on the top.
as §6
(§8) Test compounds were diluted in a 50--50 acetonewater solution. Two cubic centimeters (cc) of the compound solutions were sprayed through a DeVilbiss type EGA hand spray gun into cages each containing 10 one-month-old German cockroach nymphs.
The percent mortality was recorded 7 days later. Test concentrations ranged from 0.1% down to that at which approximately 50% mortality occurs.
as §4

SMILES	LD50 GR
CCOP(=S)(OCC)SCC(=O)N1CCN(C(=O)OC)CC1 [Compound 3, 1-N-methoxycarbo-4-N-O,O-diethylphosphorodithioylacetyl piperazine]	> .1%
CCOC(=O)N1CCN(C(=O)CSP(=S)(OC)OC)CC1 [Compound 10, 1-N-ethoxycarbo-4-N-O,O-dimethylphosphorodithioylacetyl piperazine]	> .1%
CCOC(=O)N1CCN(C(=O)CSP(=S)(OC)OC)C(C)C1 (stereo not shown) [Compound 11, 1-N-ethoxycarbo-4-N'-O,O-dimethylphosphorodithioylacetyl-3-methyl piperazine]	> .1%

Test system: Lygus Bug [Lygus hesperus (Knight)]
Test: Lygus Bug (LB) direct spray assay, mortality 48 hours later
Type: in vivo
Conditions: adults, initial 0.05%
Method: as §5, §7, §8
Lygus Bug [Lygus hesperus (Knight)], (LB)--Direct Spray Assay
(§9) The species was treated in the same manner as the German cockroach. The cages contained one string beam pod and 10 adult Lygus bugs. The percent mortality was recorded 48 hours later. Test concentrations ranged from 0.05% down to that at which approximately 50% mortality occurs. Saltmarsh Caterpillar [Estigmene acrea (Drury)], (SMC)--Leaf Dip Assay
as §4

SMILES	LD50 LB
CCOP(=S)(OCC)SCC(=O)N1CCN(C(=O)OC)CC1 [Compound 3, 1-N-methoxycarbo-4-N-O,O-diethylphosphorodithioylacetyl piperazine]	> .05%
CCOC(=O)N1CCN(C(=O)CSP(=S)(OC)OC)CC1 [Compound 10, 1-N-ethoxycarbo-4-N-O,O-dimethylphosphorodithioylacetyl piperazine]	> .05%
CCOC(=O)N1CCN(C(=O)CSP(=S)(OC)OC)C(C)C1 (stereo not shown) [Compound 11, 1-N-ethoxycarbo-4-N'-O,O-dimethylphosphorodithioylacetyl-3-methyl piperazine]	> .05%

Test system: Saltmarsh Caterpillar [Estigmene acrea (Drury)]
Test: Saltmarsh Caterpillar (SMC) leaf dip assay
Type: in vivo
Conditions: curly dock leaves, second-instar larvae, 48 hours + 5 days
Method: as §5, §9
(§10) Test compounds were diluted in a 50--50 acetone-water solution. Approximately 1×1.5 inch sections of curly dock (Rumex crispus) leaves were immersed in the test solution for 2-3 seconds. After drying on a wire screen, the leaves were placed in petri dishes containing a moistened piece of filter paper. Each dish was infested with 5 secondinstar saltmarsh larvae.
(§11) Mortality of the larvae was recorded 48 hours later. A piece of synthetic media was added to the dishes containing surviving larvae. The larvae were then observed for 5 additional days for delayed effects of the test compounds. Test concentrations ranged from 0.05% down to that at which approximately 50% mortality occurs. Cabbage Looper [Trichoplusia ni (Hubner)], (CL)
as §4

SMILES	LD50 SMC
CCOC(=O)N1CCN(C(=O)CSP(=S)(OC)OC)C(C)C1 (stereo not shown) [Compound 11, 1-N-ethoxycarbo-4-N'-O,O-dimethylphosphorodithioylacetyl-3-methyl piperazine]	.05%

Test system: Cabbage Looper [Trichoplusia ni (Hubner)]
Test: Cabbage Looper (CL) leaf dip assay
Type: in vivo
Conditions: squash cotyledons, initial 0.1%
Method: as §5, §10, §11
The effectiveness of the compounds was tested in the same manner as for the saltmarsh caterpillar with two exceptions. Cotyledons of hyzini squash (Calabacita abobrinha, were substituted for curly dock leaves and the initial test concentration was 0.1%. Tobacco Budworm [Heliothis virescens (Fabricius)], (TBW)
as §4

SMILES	LD50 CL
CCOP(=S)(OCC)SCC(=O)N1CCN(C(=O)OC)CC1 [Compound 3, 1-N-methoxycarbo-4-N-O,O-diethylphosphorodithioylacetyl piperazine]	> .1%
CCOC(=O)N1CCN(C(=O)CSP(=S)(OC)OC)CC1 [Compound 10, 1-N-ethoxycarbo-4-N-O,O-dimethylphosphorodithioylacetyl piperazine]	> .1%
CCOC(=O)N1CCN(C(=O)CSP(=S)(OC)OC)C(C)C1 (stereo not shown) [Compound 11, 1-N-ethoxycarbo-4-N'-O,O-dimethylphosphorodithioylacetyl-3-methyl piperazine]	> .1%

Test system: Southern House Mosquito Larvae (Culex pipiens quinquefasciatus)
Test: Southern House Mosquito larvae (M) assay, mortality 48 hours after treatment
Type: in vivo
Conditions: third-instar larvae in aqueous solution, initial 1 ppm, read-out: LD50 M
Method: as §5
Tobacco budworms were tested in the same manner as the cabbage looper. Romaine lettuce (Latuca sativa) leaves provided the substrate. Southern House Mosquito Larvae (Culex pipiens quinquefasciatus), (M)
Ten third-instar larvae were placed in a six ounce wax paper cup containing 100 ml of an aqueous solution of the test compounds at a concentration of 1 ppm. The treated larvae were stored at 70° F. (21.5° C.) and mortality was recorded 48 hours after treatment. Two-Spotted Mite [Tetranychus urticae (Koch)], (2SM)
as §4

SMILES	LC50 [mg/L]
CCOP(=S)(OCC)SCC(=O)N1CCN(C(=O)OC)CC1 [Compound 3, 1-N-methoxycarbo-4-N-O,O-diethylphosphorodithioylacetyl piperazine]	> 1
CCOC(=O)N1CCN(C(=O)CSP(=S)(OC)OC)CC1 [Compound 10, 1-N-ethoxycarbo-4-N-O,O-dimethylphosphorodithioylacetyl piperazine]	1 (≈ 2.81 µM)
CCOC(=O)N1CCN(C(=O)CSP(=S)(OC)OC)C(C)C1 (stereo not shown) [Compound 11, 1-N-ethoxycarbo-4-N'-O,O-dimethylphosphorodithioylacetyl-3-methyl piperazine]	1 (≈ 2.7 µM)

Test system: Two-Spotted Mite [Tetranychus urticae (Koch)]
Test: Two-Spotted Mite (2SM) plant dip assay, mortality seven days later
Type: in vivo
Conditions: adult mites
Text: as §1
Pinto bean plants (Phaseolus vulgaris) approximately 10 cm high were transplanted into sandy loam soil in three-inch clay pots. The plants were thoroughly infested with two-spotted mites of mixed ages and sexes. Twenty-four hours after infestation the plants were inverted and dipped for 2-3 seconds in 50--50 acetone-water solutions of the test compounds.
Mortality ratings for both adult mites and nymphs hatching after treatment were taken seven days later. Test concentrations ranged from 0.05% down to that at which 50% mortality occurs.
as §4

SMILES	LD50 2SM Adults
CCOP(=S)(OCC)SCC(=O)N1CCN(C(=O)OC)CC1 [Compound 3, 1-N-methoxycarbo-4-N-O,O-diethylphosphorodithioylacetyl piperazine]	< .05%
CCOC(=O)N1CCN(C(=O)CSP(=S)(OC)OC)CC1 [Compound 10, 1-N-ethoxycarbo-4-N-O,O-dimethylphosphorodithioylacetyl piperazine]	.002%
CCOC(=O)N1CCN(C(=O)CSP(=S)(OC)OC)C(C)C1 (stereo not shown) [Compound 11, 1-N-ethoxycarbo-4-N'-O,O-dimethylphosphorodithioylacetyl-3-methyl piperazine]	< .05%

Same assay, conditions: eggs (nymphs hatching after treatment)

SMILES	LD50 2SM Eggs
CCOP(=S)(OCC)SCC(=O)N1CCN(C(=O)OC)CC1 [Compound 3, 1-N-methoxycarbo-4-N-O,O-diethylphosphorodithioylacetyl piperazine]	< .05%
CCOC(=O)N1CCN(C(=O)CSP(=S)(OC)OC)CC1 [Compound 10, 1-N-ethoxycarbo-4-N-O,O-dimethylphosphorodithioylacetyl piperazine]	.005%
CCOC(=O)N1CCN(C(=O)CSP(=S)(OC)OC)C(C)C1 (stereo not shown) [Compound 11, 1-N-ethoxycarbo-4-N'-O,O-dimethylphosphorodithioylacetyl-3-methyl piperazine]	< .05%

Test system: Housefly [Musca domestica (Linn.)]
Test: not given
Conditions: topical, 48 h

SMILES	LD50 HF [μg/25]
CCOP(=S)(OCC)SCC(=O)N1CCN(C(=O)OC)CC1 [Compound 3, 1-N-methoxycarbo-4-N-O,O-diethylphosphorodithioylacetyl piperazine]	> 10
CCOC(=O)N1CCN(C(=O)CSP(=S)(OC)OC)CC1 [Compound 10, 1-N-ethoxycarbo-4-N-O,O-dimethylphosphorodithioylacetyl piperazine]	> 10
CCOC(=O)N1CCN(C(=O)CSP(=S)(OC)OC)C(C)C1 (stereo not shown) [Compound 11, 1-N-ethoxycarbo-4-N'-O,O-dimethylphosphorodithioylacetyl-3-methyl piperazine]	> 10

Test system: Tobacco Budworm [Heliothis virescens (Fabricius)]
Test: not given
Conditions: leaf dip, Romaine lettuce leaves

SMILES	LD50 TBW
CCOP(=S)(OCC)SCC(=O)N1CCN(C(=O)OC)CC1 [Compound 3, 1-N-methoxycarbo-4-N-O,O-diethylphosphorodithioylacetyl piperazine]	> .1%
CCOC(=O)N1CCN(C(=O)CSP(=S)(OC)OC)CC1 [Compound 10, 1-N-ethoxycarbo-4-N-O,O-dimethylphosphorodithioylacetyl piperazine]	> .05%
CCOC(=O)N1CCN(C(=O)CSP(=S)(OC)OC)C(C)C1 (stereo not shown) [Compound 11, 1-N-ethoxycarbo-4-N'-O,O-dimethylphosphorodithioylacetyl-3-methyl piperazine]	.1%
